Measurements from US12077503B2, “Substituted cyclic amides and their use as herbicides” (FMC CORPORATION, priority 2015, dated 2024).

Tests used:
Format in all cases: in vivo
[1] = system: corn (Zea mays); test: Test G Pre-Emergence Protocol; settings: evaluated after 13 days; for plant damage rating, Corn: 62.5 g ai/ha, 100=total damage to plant, 0=no damage to plant
Protocol: (§1) Seeds of corn (Zea mays), giant foxtail (Setaria faberi), barnyardgrass (Echinochloa crus-galli), ivy-leaved morning glory (Ipomoea hederacea), redroot pigweed (Amaranthus retroflexus) and velvetleaf (Abutilon theophrasti) were sown in standard soil in pots. After cultivation for one day under controlled conditions in a glasshouse (at 24/16° C., day/night; 14 hours light; 65% humidity), the plants were sprayed with an aqueous spray solution derived from the formulation of the technical active ingredient in acetone/water (50:50) solution containing 0.5% Tween 20 (polyoxyethylene sorbitan monolaurate, CAS RN 9005-64-5) to give a final dose of 15.625, 62.5 or 250 g/ha of test compound.
(§2) The test plants were then grown on under controlled conditions in a glasshouse (at 24/16° C., day/night; 14 hours light; 65% humidity) and watered twice daily. After 13 days the test was evaluated (100=total damage to plant; 0=no damage to plant). A dash (-) means no test result.

[2] = system: barnyardgrass (Echinochloa crus-galli); test: Test G Pre-Emergence Protocol; settings: evaluated after 13 days; for plant damage rating, Barnyardgrass: 62.5 g ai/ha, 100=total damage to plant, 0=no damage to plant
Protocol: as §1, §2

[3] = system: giant foxtail (Setaria faberi); test: Test G Pre-Emergence Protocol; settings: evaluated after 13 days; for plant damage rating, Foxtail, Giant: 62.5 g ai/ha, 100=total damage to plant, 0=no damage to plant
Protocol: as §1, §2

[4] = system: ivy-leaved morning glory (Ipomoea hederacea); test: Test G Pre-Emergence Protocol; settings: evaluated after 13 days; for Morning-glory, Ivy-leaved damage rating (100=total damage to plant; 0=no damage to plant): 15.625 g ai/ha; for plant damage rating, Morningglory, Ivy-leaved: 62.5 g ai/ha, 100=total damage to plant, 0=no damage to plant; for Morningglory, Ivy-leaved damage rating (100=total damage to plant; 0=no damage to plant): 250 g ai/ha
Protocol: as §1, §2

[5] = system: redroot pigweed (Amaranthus retroflexus); test: Test G Pre-Emergence Protocol; settings: evaluated after 13 days; for plant damage rating, Pigweed, Redroot: 62.5 g ai/ha, 100=total damage to plant, 0=no damage to plant
Protocol: as §1, §2

[6] = system: velvetleaf (Abutilon theophrasti); test: Test G Pre-Emergence Protocol; settings: evaluated after 13 days; for plant damage rating, Velvetleaf: 62.5 g ai/ha, 100=total damage to plant, 0=no damage to plant
Protocol: as §1, §2

[7] = system: corn (Zea mays); test: Test G Post-Emergence Protocol; settings: for Corn damage rating: 15.625 g ai/ha, evaluated after 13 days (100=total damage to plant; 0=no damage to plant); for Corn damage rating (100=total damage to plant; 0=no damage to plant): 62.5 g ai/ha; for Corn damage rating (100=total damage to plant; 0=no damage to plant) / damage to plant, Corn (100=total damage to plant; 0=no damage to plant): evaluated after 13 days; for damage to plant, Corn (100=total damage to plant; 0=no damage to plant): 250 g ai/ha
Protocol: as §1, with “8 days” for “one day”
as §2

[8] = system: barnyardgrass (Echinochloa crus-galli); test: Test G Post-Emergence Protocol; settings: for Barnyardgrass damage rating: 15.625 g ai/ha, evaluated after 13 days (100=total damage to plant; 0=no damage to plant); for Barnyardgrass damage rating (100=total damage to plant; 0=no damage to plant): 62.5 g ai/ha; for Barnyardgrass damage rating (100=total damage to plant; 0=no damage to plant) / damage to plant, Barnyardgrass (100=total damage to plant; 0=no damage to plant): evaluated after 13 days; for damage to plant, Barnyardgrass (100=total damage to plant; 0=no damage to plant): 250 g ai/ha
Protocol: as §1, with “8 days” for “one day”
as §2

[9] = system: giant foxtail (Setaria faberi); test: Test G Post-Emergence Protocol; settings: for Foxtail, Giant damage rating: 15.625 g ai/ha, evaluated after 13 days (100=total damage to plant; 0=no damage to plant); for Foxtail, Giant damage rating (100=total damage to plant; 0=no damage to plant): 62.5 g ai/ha; for Foxtail, Giant damage rating (100=total damage to plant; 0=no damage to plant) / damage to plant, Foxtail, Giant (100=total damage to plant; 0=no damage to plant): evaluated after 13 days; for damage to plant, Foxtail, Giant (100=total damage to plant; 0=no damage to plant): 250 g ai/ha
Protocol: as §1, with “8 days” for “one day”
as §2

[10] = system: ivy-leaved morning glory (Ipomoea hederacea); test: Test G Post-Emergence Protocol; settings: for Morningglory, Ivy-leaved damage rating: 15.625 g ai/ha, evaluated after 13 days (100=total damage to plant; 0=no damage to plant); for Morningglory, Ivy-leaved damage rating (100=total damage to plant; 0=no damage to plant): 62.5 g ai/ha; for Morningglory, Ivy-leaved damage rating (100=total damage to plant; 0=no damage to plant) / damage to plant, Morningglory, Ivy-leaved (100=total damage to plant; 0=no damage to plant): evaluated after 13 days; for damage to plant, Morningglory, Ivy-leaved (100=total damage to plant; 0=no damage to plant): 250 g ai/ha
Protocol: as §1, with “8 days” for “one day”
as §2

[11] = system: redroot pigweed (Amaranthus retroflexus); test: Test G Post-Emergence Protocol; settings: for Pigweed, Redroot damage rating: 15.625 g ai/ha, evaluated after 13 days (100=total damage to plant; 0=no damage to plant); for Pigweed, Redroot damage rating (100=total damage to plant; 0=no damage to plant): 62.5 g ai/ha; for Pigweed, Redroot damage rating (100=total damage to plant; 0=no damage to plant) / damage to plant, Pigweed, Redroot (100=total damage to plant; 0=no damage to plant): evaluated after 13 days; for damage to plant, Pigweed, Redroot (100=total damage to plant; 0=no damage to plant): 250 g ai/ha
Protocol: as §1, with “8 days” for “one day”
as §2

[12] = system: velvetleaf (Abutilon theophrasti); test: Test G Post-Emergence Protocol; settings: for Velvetleaf damage rating: 15.625 g ai/ha, evaluated after 13 days (100=total damage to plant; 0=no damage to plant); for Velvetleaf damage rating (100=total damage to plant; 0=no damage to plant): 62.5 g ai/ha; for Velvetleaf damage rating (100=total damage to plant; 0=no damage to plant) / damage to plant, Velvetleaf (100=total damage to plant; 0=no damage to plant): evaluated after 13 days; for damage to plant, Velvetleaf (100=total damage to plant; 0=no damage to plant): 250 g ai/ha
Protocol: as §1, with “8 days” for “one day”
as §2

| Compound | Corn damage rating (100=total damage to plant; 0=no damage to plant) ([1]; 15.625 g ai/ha) | plant damage rating, Corn [1] | Corn damage rating (100=total damage to plant; 0=no damage to plant) ([1]; 250 g ai/ha) | Barnyardgrass damage rating (100=total damage to plant; 0=no damage to plant) ([2]; 15.625 g ai/ha) | plant damage rating, Barnyardgrass [2] | Barnyardgrass damage rating (100=total damage to plant; 0=no damage to plant) ([2]; 250 g ai/ha) | Foxtail, Giant damage rating (100=total damage to plant; 0=no damage to plant) ([3]; 15.625 g ai/ha) | plant damage rating, Foxtail, Giant [3] | Foxtail, Giant damage rating (100=total damage to plant; 0=no damage to plant) ([3]; 250 g ai/ha) | Morning-glory, Ivy-leaved damage rating (100=total damage to plant; 0=no damage to plant) [4] | plant damage rating, Morningglory, Ivy-leaved [4] | Morningglory, Ivy-leaved damage rating (100=total damage to plant; 0=no damage to plant) [4] | Pigweed, Redroot damage rating (100=total damage to plant; 0=no damage to plant) ([5]; 15.625 g ai/ha) | plant damage rating, Pigweed, Redroot [5] | Pigweed, Redroot damage rating (100=total damage to plant; 0=no damage to plant) ([5]; 250 g ai/ha) | Velvetleaf damage rating (100=total damage to plant; 0=no damage to plant) ([6]; 15.625 g ai/ha) | plant damage rating, Velvetleaf [6] | Velvetleaf damage rating (100=total damage to plant; 0=no damage to plant) ([6]; 250 g ai/ha) | Corn damage rating [7] | Corn damage rating (100=total damage to plant; 0=no damage to plant) [7] | also measured |
| --- | --- | --- | --- | --- | --- | --- | --- | --- | --- | --- | --- | --- | --- | --- | --- | --- | --- | --- | --- | --- | --- |
| Cc1nc(Cl)ccc1[C@@H]1CN(C)C(=O)[C@H]1C(=O)Nc1cccc(F)c1F [Compound 1463] | 0 | 0 | 0 | 10 | 50 | 90 | 0 | 70 | 90 | 0 | 0 | 0 | 0 | 0 | 0 | 0 | 0 | 0 | 0 | 10 | damage to plant, Corn (100=total damage to plant; 0=no damage to plant) [7]: 10; Barnyardgrass damage rating [8]: 0; Barnyardgrass damage rating (100=total damage to plant; 0=no damage to plant) [8]: 0; damage to plant, Barnyardgrass (100=total damage to plant; 0=no damage to plant) [8]: 30; Foxtail, Giant damage rating [9]: 0; Foxtail, Giant damage rating (100=total damage to plant; 0=no damage to plant) [9]: 0; damage to plant, Foxtail, Giant (100=total damage to plant; 0=no damage to plant) [9]: 70; Morningglory, Ivy-leaved damage rating [10]: 0; Morningglory, Ivy-leaved damage rating (100=total damage to plant; 0=no damage to plant) [10]: 0; damage to plant, Morningglory, Ivy-leaved (100=total damage to plant; 0=no damage to plant) [10]: 20; Pigweed, Redroot damage rating [11]: 0; Pigweed, Redroot damage rating (100=total damage to plant; 0=no damage to plant) [11]: 10; damage to plant, Pigweed, Redroot (100=total damage to plant; 0=no damage to plant) [11]: 10; Velvetleaf damage rating [12]: 0; Velvetleaf damage rating (100=total damage to plant; 0=no damage to plant) [12]: 10; damage to plant, Velvetleaf (100=total damage to plant; 0=no damage to plant) [12]: 20 |
| CN1CC(c2ccc(C(F)(F)F)cc2)C(C(=O)Nc2ccncc2[N+](=O)[O-])C1=O (racemic) [Compound 1568] | 0 | 0 | 0 | 0 | 0 | 0 | 0 | 0 | 0 | 0 | 0 | 0 | 0 | 0 | 0 | 0 | 0 | 0 | 0 | 0 | damage to plant, Corn (100=total damage to plant; 0=no damage to plant) [7]: 10; Barnyardgrass damage rating [8]: 0; Barnyardgrass damage rating (100=total damage to plant; 0=no damage to plant) [8]: 10; damage to plant, Barnyardgrass (100=total damage to plant; 0=no damage to plant) [8]: 20; Foxtail, Giant damage rating [9]: 0; Foxtail, Giant damage rating (100=total damage to plant; 0=no damage to plant) [9]: 0; damage to plant, Foxtail, Giant (100=total damage to plant; 0=no damage to plant) [9]: 0; Morningglory, Ivy-leaved damage rating [10]: 0; Morningglory, Ivy-leaved damage rating (100=total damage to plant; 0=no damage to plant) [10]: 0; damage to plant, Morningglory, Ivy-leaved (100=total damage to plant; 0=no damage to plant) [10]: 0; Pigweed, Redroot damage rating [11]: 0; Pigweed, Redroot damage rating (100=total damage to plant; 0=no damage to plant) [11]: 0; damage to plant, Pigweed, Redroot (100=total damage to plant; 0=no damage to plant) [11]: 0; Velvetleaf damage rating [12]: 0; Velvetleaf damage rating (100=total damage to plant; 0=no damage to plant) [12]: 0; damage to plant, Velvetleaf (100=total damage to plant; 0=no damage to plant) [12]: 0 |
